From patent US10377770B2 (Novartis AG, priority 2015, dated 2019) come the findings set out here.

pIC50: −log10 of the molar value.

In the test the target is C-Raf FL (full length CRAF with Y340E and Y341E activating mutations, co-expressed with h14-3-3 zeta) (Homo sapiens (Human), UniProt P04049, Y340E/Y341E). Description: In vitro Raf activity determination, AlphaScreen p-MEK readout, c-Raf (C-Raf FL). To be noted: c-Raf approximately 4 nM, ATP 1 μM, pre-incubation 60 minutes, reaction 1 hour. It is filed as biochemical. The method in brief: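 Full-length C-Raf (~4 nM) pre-incubated 60 min at room temperature with compound and kinase-dead biotinylated MEK1 (~10 nM) in Tris pH 7.5, 15 mM MgCl2, BSA, DTT. Reaction started with 1 μM ATP and run 1 h at room temperature. Phospho-MEK detected by AlphaScreen with anti-p-MEK antibody.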
Sequence of C-Raf FL (full length CRAF with Y340E and Y341E activating mutations, co-expressed with h14-3-3 zeta) (P04049 whole entry Y340E/Y341E): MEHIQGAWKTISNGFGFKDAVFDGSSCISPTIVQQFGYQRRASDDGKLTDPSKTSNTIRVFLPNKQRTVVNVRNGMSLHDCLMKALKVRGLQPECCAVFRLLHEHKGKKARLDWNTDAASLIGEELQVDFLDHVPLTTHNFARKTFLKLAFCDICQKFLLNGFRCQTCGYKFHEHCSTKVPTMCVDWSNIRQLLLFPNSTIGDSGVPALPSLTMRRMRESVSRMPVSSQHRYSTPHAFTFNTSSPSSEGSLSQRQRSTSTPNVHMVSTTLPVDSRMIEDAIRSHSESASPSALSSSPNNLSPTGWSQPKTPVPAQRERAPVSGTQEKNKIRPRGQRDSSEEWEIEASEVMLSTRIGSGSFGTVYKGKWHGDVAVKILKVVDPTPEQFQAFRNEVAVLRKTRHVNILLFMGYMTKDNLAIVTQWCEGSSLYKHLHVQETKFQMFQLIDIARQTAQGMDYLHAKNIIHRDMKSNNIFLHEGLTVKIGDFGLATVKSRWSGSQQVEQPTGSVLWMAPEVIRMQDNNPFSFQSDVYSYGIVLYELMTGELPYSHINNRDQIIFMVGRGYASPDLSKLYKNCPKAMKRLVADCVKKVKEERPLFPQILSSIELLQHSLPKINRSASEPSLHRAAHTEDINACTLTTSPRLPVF
Sequence of C-Raf FL (full length CRAF with Y340E and Y341E activating mutations, co-expressed with h14-3-3 zeta) (P63104 whole entry partner): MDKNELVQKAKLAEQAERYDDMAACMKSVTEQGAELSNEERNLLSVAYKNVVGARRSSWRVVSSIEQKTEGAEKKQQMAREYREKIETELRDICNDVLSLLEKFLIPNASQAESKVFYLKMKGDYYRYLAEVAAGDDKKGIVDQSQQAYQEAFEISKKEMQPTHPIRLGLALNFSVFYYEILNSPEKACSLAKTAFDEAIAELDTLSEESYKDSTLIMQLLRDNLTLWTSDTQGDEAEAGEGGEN

Compound `Cc1ncc(NC(=O)c2cccc(C(F)(F)F)c2)cc1-c1ccc2c(c1)N1CCOCC1CC2O` (racemic) [Example 9, (rac)-N-(5-(6-hydroxy-1,2,4,4a,5,6-hexahydro-[1,4]oxazino[4,3-a]quinolin-9-yl)-6-methylpyridin-3-yl)-3-(trifluoromethyl)benzamide] had a pIC50 of 10.29.

Compound `CNC(=O)C1Cc2ccc(-c3cc(NC(=O)c4cccc(C(F)(F)F)c4)cnc3C)cc2N2CCOCC12` (racemic) [Example 68, (rac)-N-methyl-9-(2-methyl-5-(3-(trifluoromethyl)benzamido)pyridin-3-yl)-1,2,4,4a,5,6-hexahydro-[1,4]oxazino[4,3-a]quinoline-5-carboxamide] gave a negative-log IC50 (pIC50) of 9.47.

For the compound `Cc1ccc(NC(=O)c2ccnc(C(C)(F)F)c2)cc1-c1cnc2c(c1)N1CCOC[C@H]1[C@H](F)[C@H]2O` (relative stereo) [Example 140, rac-2-(1,1-difluoroethyl)-N-(3-((4aS*,5S*,6S*)-5-fluoro-6-hydroxy-1,2,4,4a,5,6-hexahydro-[1,4]oxazino[4,3-a][1,5]naphthyridin-9-yl)-4-methylphenyl)isonicotinamide], the pIC50 was 11.07. As for `Cc1ncc(NC(=O)c2cncc(C(F)(F)F)c2)cc1-c1ccc2c(c1)N1CCOC[C@H]1[C@](F)(CF)C2` [Example 470, N-(5-((4aS,5S)-5-fluoro-5-(fluoromethyl)-1,2,4,4a,5,6-hexahydro-[1,4]oxazino[4,3-a]quinolin-9-yl)-6-methylpyridin-3-yl)-5-(trifluorometh-yl)nicotinamide], the figure is 8.66; as for `Cc1ncc(NC(=O)c2cccc(C(F)(F)F)c2)cc1-c1cnc2c(c1)C1CCOCCC1C(=O)N2CCO` (centres unmarked) [Example 285, N-(5-(7-(2-hydroxyethyl)-6-oxo-1,2,4,5,5a,6,7,11b-octahydrooxepino [4,5-c][1,8]naphthyridin-10-yl)-6-methylpyridin-3-yl)-3-(trifluoromethyl) benzamide], 10.00; as for `Cc1ccc(NC(=O)c2cncc(C(F)(F)F)c2)cc1-c1ccc2c(c1)N1CCOC[C@H]1[C@](F)(CO)C2` [Example 393, N-(3-((4aS,5S)-5-fluoro-5-(hydroxymethyl)-1,2,4,4a,5,6-hexahydro-[1,4]oxazino[4,3-a]quinolin-9-yl)-4-methylphenyl)-5-(trifluoromethyl)nicotinamide], 10.00. The same measure for `Cc1ncc(NC(=O)c2cccc(C(F)(F)F)c2)cc1-c1ccc2c(c1)N1CCOC[C@H]1[C@](CO)(CF)C2` [Example 409, N-(5-((4aR,5R)-5-(fluoromethyl)-5-(hydroxymethyl)-1,2,4,4a,5,6-hexahydro-[1,4]oxazino[4,3-a]quinolin-9-yl)-6-methylpyridin-3-yl)-3-(trifluoromethyl)benzamide]: 9.40. Compound `Cc1ccc(NC(=O)c2ccnc(C(C)(F)F)c2)cc1-c1cnc2c(c1)N1CCOC[C@H]1C(C)(C)[C@H]2O` [Example 161, 2-(1,1-difluoroethyl)-N-(3-((4aR,6R)-6-hydroxy-5,5-dimethyl-1,2,4,4a,5,6-hexahydro-[1,4]oxazino[4,3-a][1,5]naphthyridin-9-yl)-4-methylphenyl)isonicotinamide] showed a pIC50 of 10.10. This pIC50 is 0.70 log units higher than that of the compound before. The same measure for `Cc1ccc(NC(=O)c2cncc(C(F)(F)F)c2)cc1-c1cnc2c(c1)C1(C)CCOCCC1C(=O)N2CCO` (single isomer, unassigned) [Example 358, N-(3-((5a,11b-trans)-7-(2-hydroxyethyl)-11b-methyl-6-oxo-1,2,4,5,5a,6,7,11b-octahydrooxepino[4,5-c][1,8]naphthyridin-10-yl)-4-methylphenyl)-5-(trifluoromethyl)nicotinamide]: 10.00.

Regarding `Cc1ccc(NC(=O)c2ccnc(C(F)(F)F)c2)cc1-c1cnc2c(c1)C1CCOCC1OC(=O)N2CCO` (stereo not drawn) [Example 330, N-(3-((4,11b-cis)-7-(2-hydroxyethyl)-6-oxo-2,4,4a,6,7,11b-hexahydro-1H-pyrano[4,3-f]pyrido[2,3-d][1,3]oxazepin-10-yl)-4-methylphenyl)-2-(trifluoromethyl) isonicotinamide], the negative logarithm of the IC50 (pIC50) is 8.51.

The compound `CCN1C[C@@H]2COCC[C@H]2c2cc(-c3cc(NC(=O)c4ccnc(C(F)(F)F)c4)ccc3C)cnc21` [Example 291, N-(3-((4aR, 10bR)-6-ethyl-2,4,4a,5,6,10b-hexahydro-1H-pyrano[3,4-c][1,8]naphthyridin-9-yl)-4-methylpheny)-2-(trifluoromethyl) isonicotinamide] had a pIC50 of 10.00. Consider `Cc1ccc(NC(=O)c2ccnc(C(F)(F)F)c2)cc1-c1cc2c(cc1F)C[C@@](F)(CO)[C@@H]1COCCN21` [Example 485, N-(3-((4aS,5S)-5,8-difluoro-5-(hydroxymethyl)-1,2,4,4a,5,6-hexahydro-[1,4]oxazino[4,3-a]quinolin-9-yl)-4-methylphenyl)-2-(trifluoromethyl) isonicotinamide], for which the pIC50 is 9.52. Compound `Cc1ncc(NC(=O)c2ccnc(C(C)(C)F)c2)cc1-c1ccc2c(c1)N1CCOCC[C@H]1C[C@H]2O` [Example 444] gave a pIC50 of 9.40. `Cc1ccc(NC(=O)c2ccnc(C(F)(F)F)c2)cc1-c1cnc2c(c1)N1CCOC[C@H]1[C@@](C#N)(CF)C2` [Example 520]: the pIC50 is 10.00. The same measure for `Cc1ccc(NC(=O)c2ccnc(C(F)(F)F)c2)cc1-c1ccc2c(c1)N1CCOCC1CC2` (racemic) [Example 21, (rac)-N-(3-(1,2,4,4a,5,6-hexahydro-[1,4]oxazino[4,3-a]quinolin-9-yl)-4-methylphenyl)-2-(trifluoromethyl)isonicotinamide]: 11.92; for `Cc1ncc(NC(=O)c2cccc(C(F)(F)F)c2)cc1-c1cnc2c(c1)N1CCOC[C@H]1[C@H](C(C)(C)O)C2` [Example 458, N-(5-((4aR,5R)-5-(2-hydroxypropan-2-yl)-1,2,4,4a,5,6-hexahydro-[1,4]oxazino[4,3-a][1,5]naphthyridin-9-yl)-6-methylpyridin-3-yl)-3-(trifluoro-methyl)benzamide]: 9.15. The same measure for `CCN1C(=O)C2CCOCCC2c2cc(-c3cc(NC(=O)c4ccnc(C(F)(F)F)c4)ccc3C)cnc21` (centres unmarked) [Example 248]: 9.30. As for `CCN1C(=O)[C@@H]2COCC[C@H]2c2cc(-c3cc(NC(=O)c4cncc(C(F)(F)F)c4)ccc3C)cnc21` [Example 303, N-(3-((4aS,10bR)-6-ethyl-5-oxo-2,4,4a,5,6,10b-hexahydro-1H-pyrano[3,4-c][1,8]naphthyridin-9-yl)-4-methylphenyl)-5-(trifluoromethyl) nicotinamide], the figure is 10.00; as for `CNC(=O)C1Cc2ncc(-c3cc(NC(=O)c4ccnc(C(C)(F)F)c4)ccc3C)cc2N2CCOCC12` (racemic) [Example 173, rac-9-(5-(2-(1,1-difluoroethyl)isonicotinamido)-2-methylphenyl)-N-methyl-1,2,4,4a,5,6-hexahydro-[1,4]oxazino[4,3-a][1,5]naphthyridine-5-carboxamide], 10.92; as for `Cc1ccc(NC(=O)c2ccnc(C(F)(F)F)c2)cc1-c1cnc2c(c1)N1CCOC[C@H]1C[C@H]2OCCO` [Example 508, N-(3-((4aR,6R)-6-(2-hydroxyethoxy)-1,2,4,4a,5,6-hexahydro-[1,4]oxazino[4,3-a][1,5]naphthyridin-9-yl)-4-methylphenyl)-2-(trifluoromethyl)iso-nicotinamide], 9.70. `CCNC(=O)C1Cc2ccc(-c3cc(NC(=O)c4cccc(C(F)(F)F)c4)cnc3C)cc2N2CCOCC12` (racemic) [Example 75, (rac)-N-ethyl-9-(2-methyl-5-(3-(trifluoromethyl)benzamido)pyridin-3-yl)-1,2,4,4a,5,6-hexahydro-[1,4]oxazino[4,3-a]quinoline-5-carboxamide]: the negative-log IC50 (pIC50) is 9.32. Turning to `CC[C@H]1Oc2nnc(-c3cc(NC(=O)c4ccnc(C(C)(F)F)c4)ccc3C)cc2N2CCOC[C@H]12` [Example 533, 2-(1,1-difluoroethyl)-N-(3-((6R,6aR)-6-ethyl-6a,7,9,10-tetrahydro-6H-[1,4]oxazino[4,3-d]pyridazino[3,4-b][1,4]oxazin-2-yl)-4-methylphenyl)isonicotinamide], the pIC50 was 10.00. Compared with the last compound, the pIC50 is 0.68 log units higher. `Cc1ccc(NC(=O)c2ccnc(C(F)(F)F)c2)cc1-c1cnc2c(c1)N1CCOC[C@@H]1C[C@@H]2OCCO` [Example 509, N-(3-((4aS,6S)-6-(2-hydroxyethoxy)-1,2,4,4a,5,6-hexahydro-[1,4]oxazino[4,3-a][1,5]naphthyridin-9-yl)-4-methylphenyl)-2-(trifluorometh-yl)isonicotinamide] showed a negative logarithm of the IC50 (pIC50) of 9.70. This pIC50 lies 0.30 log units lower than the previous one. Turning to `Cc1ccc(NC(=O)c2cncc(C(F)(F)F)c2)cc1-c1cnc2c(c1)N1CCOC[C@H]1C[C@@H]2O` (racemic) [Example 144, rac-cis-N-(3-(6-hydroxy-1,2,4,4a,5,6-hexahydro-[1,4]oxazino[4,3-a][1,5]naphthyridin-9-yl)-4-methylphenyl)-5-(trifluoromethyl)nicotinamide], the negative-log IC50 (pIC50) is 11.64. The same measure for `Cc1ccc(NC(=O)c2ccnc(C(F)(F)F)c2F)cc1-c1cnc2c(c1)C1C3COCC3C1C(=O)N2CCO` (centres unmarked) [Example 280, 3-fluoro-N-(3-(5-(2-hydroxyethyl)-6-oxo-5,6,6a,6b,7,9,9a,9b-octahydrofuro[3′,4′: 3,4]cyclobuta[1,2-c][1,8]naphthyridin-2-yl)-4-methylphenyl)-2-(trifluoromethyl) isonicotinamide]: 9.30. The same measure for `Cc1ccc(NC(=O)c2ccnc(C(C)(F)F)c2)cc1-c1cc2c(nn1)OC(C)(C)C1COCCN21` (racemic) [Example 136, rac-2-(1,1-Difluoroethyl)-N-(3-(6,6-dimethyl-6a,7,9,10-tetrahydro-6H-[1,4]oxazino[4,3-d]pyridazino[3,4-b][1,4]oxazin-2-yl)-4-methylphenyl)isonicotinamide]: 10.74.
